Test results reported in PubChem BioAssay AID1963836 (Molecular Pharmacology Branch, DTP, NCI, 2024).

Tested on: 857933-349-R-J2-PDC complex spheroid viability
Experiment: Anticancer human tumor 857933-349-R-J2-PDC patient-derived colon adenocarcinoma cell line growth inhibition [POLQ]
Settings: for IC50: curve of first compound; for viability, T/C: stronger effect = lower value; active means viability on the fitted dose curve at most 10% of control; inactive means the rest
Method in brief: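 PDC + HUVEC + MSC complex spheroids; POLQ inhibitors ± partner drugs; top conc. at/near clinical Cmax, else 10 microM (SN-38 1 microM), half-log dilutions; 37 degrees C, 5% CO2.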

[1] = second compound 0.0316 µM, first compound 0.0316 µM
[2] = second compound 0.0316 µM, first compound 0.1 µM
[3] = second compound 0.0316 µM, first compound 0.316 µM
[4] = second compound 0.0316 µM, first compound 1 µM
[5] = second compound 0.0316 µM, first compound 3.16 µM
[6] = second compound 0.0316 µM, first compound 10 µM
[7] = second compound 0.1 µM, first compound 0.0316 µM
[8] = second compound 0.1 µM, first compound 0.1 µM
[9] = second compound 0.1 µM, first compound 0.316 µM
[10] = second compound 0.1 µM, first compound 1 µM
[11] = second compound 0.1 µM, first compound 3.16 µM
[12] = second compound 0.1 µM, first compound 10 µM
[13] = second compound 0.316 µM, first compound 0.0316 µM
[14] = second compound 0.316 µM, first compound 0.1 µM
[15] = second compound 0.316 µM, first compound 0.316 µM
[16] = second compound 0.316 µM, first compound 1 µM
[17] = second compound 0.316 µM, first compound 3.16 µM
[18] = second compound 0.316 µM, first compound 10 µM
[19] = second compound 1 µM, first compound 0.0316 µM
[20] = second compound 1 µM, first compound 0.1 µM
[21] = second compound 1 µM, first compound 0.316 µM
[22] = second compound 1 µM, first compound 1 µM
[23] = second compound 1 µM, first compound 3.16 µM
[24] = second compound 1 µM, first compound 10 µM
[25] = second compound 3.16 µM, first compound 0.0316 µM
[26] = second compound 3.16 µM, first compound 0.1 µM
[27] = second compound 3.16 µM, first compound 0.316 µM
[28] = second compound 3.16 µM, first compound 1 µM
[29] = second compound 3.16 µM, first compound 3.16 µM
[30] = second compound 3.16 µM, first compound 10 µM
[31] = second compound 10 µM, first compound 0.0316 µM
[32] = second compound 10 µM, first compound 0.1 µM
[33] = second compound 10 µM, first compound 0.316 µM
[34] = second compound 10 µM, first compound 1 µM
[35] = second compound 10 µM, first compound 3.16 µM
[36] = second compound 10 µM, first compound 10 µM
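Further: spheroids exposed to compounds for seven days before readout.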

CNCc1ccc(-c2[nH]c3cc(F)cc4c3c2CCNC4=O)cc1 + COC1C(OC(N)=O)C(O)C(Oc2ccc3c(O)c(NC(=O)c4ccc(O)c(CC=C(C)C)c4)c(=O)oc3c2C)OC1(C)C
> 10000 nM: IC50 (second compound 0.0316 µM) | IC50 (second compound 0.1 µM) | IC50 (second compound 0.316 µM) | IC50 (second compound 1 µM) | IC50 (second compound 3.16 µM) | IC50 (second compound 10 µM)
inactive: viability, T/C [1] 85.1% | viability, T/C [2] 90% | viability, T/C [3] 93.8% | viability, T/C [4] 89.9% | viability, T/C [5] 87.1% | viability, T/C [6] 69.5% | viability, T/C [7] 103% | viability, T/C [8] 87.7% | viability, T/C [9] 88.9% | viability, T/C [10] 117% | viability, T/C [11] 99.2% | viability, T/C [12] 106% | viability, T/C [13] 88.5% | viability, T/C [14] 96.9% | viability, T/C [15] 102% | viability, T/C [16] 111% | viability, T/C [17] 103% | viability, T/C [18] 92.3% | viability, T/C [19] 97.2% | viability, T/C [20] 97.2% | viability, T/C [21] 67.9% | viability, T/C [22] 83.5% | viability, T/C [23] 117% | viability, T/C [24] 103% | viability, T/C [25] 82.5% | viability, T/C [26] 102% | viability, T/C [27] 90.3% | viability, T/C [28] 87.2% | viability, T/C [29] 104% | viability, T/C [30] 88.8% | viability, T/C [31] 66.3% | viability, T/C [32] 92.3% | viability, T/C [33] 84.3% | viability, T/C [34] 74.9% | viability, T/C [35] 95.3% | viability, T/C [36] 90.5%

COc1cccc(OCCCN)c1-c1cc(Nc2cnc(C#N)cn2)n[nH]1 + COC1C(OC(N)=O)C(O)C(Oc2ccc3c(O)c(NC(=O)c4ccc(O)c(CC=C(C)C)c4)c(=O)oc3c2C)OC1(C)C
89.5 nM: IC50 (second compound 0.0316 µM)
66.9 nM: IC50 (second compound 0.1 µM)
inactive: viability, T/C (second compound 0.0316 µM, first compound 0.00316 µM) 102% | viability, T/C (second compound 0.0316 µM, first compound 0.01 µM) 75.5% | viability, T/C [1] 61.3% | viability, T/C [2] 48.8% | viability, T/C [3] 44.1% | viability, T/C [4] 29.9% | viability, T/C (second compound 0.1 µM, first compound 0.00316 µM) 79.5% | viability, T/C (second compound 0.1 µM, first compound 0.01 µM) 113% | viability, T/C [7] 58.8% | viability, T/C [8] 51.5% | viability, T/C [9] 48.9% | viability, T/C [10] 35.4% | viability, T/C (second compound 0.316 µM, first compound 0.00316 µM) 85.2% | viability, T/C (second compound 0.316 µM, first compound 0.01 µM) 86.1% | viability, T/C [13] 62.6% | viability, T/C [14] 53.2% | viability, T/C [15] 48.5% | viability, T/C [16] 35.4% | viability, T/C (second compound 1 µM, first compound 0.00316 µM) 95% | viability, T/C (second compound 1 µM, first compound 0.01 µM) 84.2% | viability, T/C [19] 52.8% | viability, T/C [20] 51.2% | viability, T/C [21] 46.5% | viability, T/C [22] 32.2% | viability, T/C (second compound 3.16 µM, first compound 0.00316 µM) 93.7% | viability, T/C (second compound 3.16 µM, first compound 0.01 µM) 89.1% | viability, T/C [25] 79.5% | viability, T/C [26] 56.2% | viability, T/C [27] 47.5% | viability, T/C [28] 33.6% | viability, T/C (second compound 10 µM, first compound 0.00316 µM) 88% | viability, T/C (second compound 10 µM, first compound 0.01 µM) 77.7% | viability, T/C [31] 70.5% | viability, T/C [32] 54.2% | viability, T/C [33] 44% | viability, T/C [34] 31%
155 nM: IC50 (second compound 0.316 µM)
86.9 nM: IC50 (second compound 1 µM)
170 nM: IC50 (second compound 10 µM)
204 nM: IC50 (second compound 3.16 µM)

Nc1ccn(C2OC(CO)C(O)C2(F)F)c(=O)n1 (stereo unspecified) + COC1C(OC(N)=O)C(O)C(Oc2ccc3c(O)c(NC(=O)c4ccc(O)c(CC=C(C)C)c4)c(=O)oc3c2C)OC1(C)C
138 nM: IC50 (second compound 3.16 µM)
inactive: viability, T/C [1] 68.6% | viability, T/C [2] 63.7% | viability, T/C [3] 30.3% | viability, T/C [4] 17.6% | viability, T/C [5] 12.9% | viability, T/C [6] 11.4% | viability, T/C [7] 91.6% | viability, T/C [8] 63.3% | viability, T/C [9] 26.3% | viability, T/C [10] 17.3% | viability, T/C [11] 11.3% | viability, T/C [12] 11.4% | viability, T/C [13] 67.3% | viability, T/C [14] 64.5% | viability, T/C [15] 22.4% | viability, T/C [16] 16.8% | viability, T/C [17] 13.5% | viability, T/C [18] 10.9% | viability, T/C [19] 74.1% | viability, T/C [20] 68.5% | viability, T/C [21] 25.5% | viability, T/C [22] 19.6% | viability, T/C [23] 14.5% | viability, T/C [24] 7.53% | viability, T/C [25] 82.1% | viability, T/C [26] 59.4% | viability, T/C [27] 25.8% | viability, T/C [28] 16.8% | viability, T/C [29] 12.8% | viability, T/C [30] 11.8% | viability, T/C [31] 77.7% | viability, T/C [32] 65.6% | viability, T/C [33] 28.2% | viability, T/C [34] 14.9% | viability, T/C [35] 16.3% | viability, T/C [36] 11.8%
159 nM: IC50 (second compound 0.0316 µM)
152 nM: IC50 (second compound 0.1 µM)
148 nM: IC50 (second compound 0.316 µM)
162 nM: IC50 (second compound 10 µM)
164 nM: IC50 (second compound 1 µM)
